Data on two compounds can be found in publication PMC7662321, “Andrographolide and Its 14-Aryloxy Analogues Inhibit Zika and Dengue Virus Infection” (Molecules, 2020).

A short description of data set [1]: MTT cytotoxicity assay in HEK293T/17 cells. The data set is classed as cell-based. The conditions noted are these: human, HEK293T/17 cells (human embryonic kidney), 24 h post-treatment. The procedure:
(§1) Cytotoxicity of each compound towards cells for four selected cell lines in the range of 1 to 500 µM was evaluated using the MTT (3-(4,5-dimethylthiazol-2-yl)-2,5-diphenyltetrazolium bromide) assay at 24 h post-treatment, in parallel with control and vehicle-treated cells (0.1% dimethyl sulfoxide (DMSO)). The 50% cytotoxic concentration (CC50) values calculated from the dose-response curve (Supplementary Figures S2–S5) are shown in Table 1. Overall, a range of cytotoxicities were seen from the four compounds across the […]. The most cytotoxic combination was ZAD-1 and BHK-21 cells, while the least cytotoxic combination was andrographolide and BHK-21 cells (Table 1).
(§2) A549 cells were cultured in ninety-six-well tissue culture plates under standard conditions until the cells reached 90% confluence. The cell culture medium was removed and then cells were incubated with various concentrations of andrographolide (1–100 μM) diluted in complete medium with FBS prior to being cultured for 24 h under standard conditions before analysis using either the Vybrant MTT Cell proliferation assay kit (V13154, Invitrogen) or the alamarBlue (Thermo Fischer Scientific, Waltham, MA, USA) assay kit according to the manufacturers recommendations. Values were determined from 8 (MTT assay) or 3 (alamarBlue) independent replicates. Negative controls (only media and media with 0.1% DMSO) and positive controls (5% DMSO) were included. To determine cell number, cell cultures were trypsinized by the addition of 0.25% Trypsin/0.1% ethylelediaminetetraacetic acid (EDTA) for 3 min and then cell suspensions were diluted with 0.4% trypan blue solution. Cells were counted using a hemocytometer. Cell morphology was additionally observed under an inverted microscope after 24 h treatment with various concentrations of each compound.
Figu re S5. Cytotoxicity of ZAD -1 (A), ZA D-2 (B), ZA D-3 (C), and andro grapholide (D) to HEK293T/17 (human embryonic kidney) cells.
HEK293T/17 cells were incubated with various concentrations of each compound for 24 hrs followed by MTT cell viability assay. The experiment was undertaken independently in 4 replicates. DMSO at the same concentrations was used as a control.
10% ethanol, PBS, and milli- Q water were used as a positive control of cell death. […]
(In general: Formazan colour is commonly taken as a measure of viable cells.)

The next data set concerns ZIKV. Description: Percentage of ZIKV infection of A549 cells by flow cytometry. The conditions noted are these: A549, MOI 5, 10 and 25 µM, 24 h, vs vehicle. The data set is classed as cell-based, Zika virus. As to the method: To confirm the effects of andrographolide and the andrographolide analogues on ZIKV infection, A549 cells were infected with ZIKV at MOI of 5 for 2 h, and subsequently treated with the compounds at concentrations of 10 and 25 μM or with vehicle for 24 h. The cells were harvested for determination of the percentage of infection by flow cytometry, while the supernatants were collected for determination of viral titer by standard plaque assay.
HEK293T/17 or A549 cells were cultured in six-well plates under standard conditions until the cells reached 80% confluence. HEK293T/17 cells were infected with DENV 2, while A549 cells were infected with ZIKV Thai strain at MOI 5 for 2 h at 37 °C and 5% CO2 in culture medium without FBS. Mock infection was undertaken in parallel. After the infection period, the medium was removed and replaced with complete medium (including FBS) containing 0.1% DMSO (no treatment control) or the appropriate concentration of each compound and cells were again incubated under standard conditions. At 24 h post-treatment, cells were harvested for determination of effects of compounds on percentage of infection and supernatant was collected for determination of viral productivity. All experiments were undertaken independently in triplicate with duplicate plaque assay.
Mock- or viral-infected cells (with or without compound treatment) were harvested at an appropriate time point then incubated with 10% normal goat serum (NGS; Gibco Invitrogen) in PBS-immunofluorescence assay (IFA) buffer on ice for 30 min. The cells were washed with 800 µL of 1% BSA/PBS-IFA and fixed with 200 µL of 4% paraformaldehyde in PBS-IFA at room temperature in the dark for 20 min. After washing with 800 µL of 1% BSA/PBS-IFA, cells were permeabilized with 200 µL of 0.2% Triton X-100 in PBS-IFA for 10 min at room temperature in the dark. Subsequently, the cells were washed with 800 µL of 1% BSA/PBS-IFA followed by overnight incubation with 50 µL of primary antibody (1:150 dilution of pan-specific anti-dengue virus E protein antibody HB114 for DENV and 1:2 dilution of anti-flavivirus antibody HB112 for ZIKV). After washing twice with 800 µL of 1% BSA/PBS-IFA, the cells were incubated with 50 µL of a goat anti-mouse IgG conjugated with fluorescein isothiocyanate (FITC; KPL, Guilford, UK) diluted 1:40 with 1% BSA/PBS-IFA at room temperature in the dark for 1 h. The cells were washed twice with 800 µL of 1% BSA/PBS-IFA and resuspended in 100 µL of PBS-IFA. The fluorescence signal was analyzed by flow cytometry on a BD FACalibur cytometer (Becton Dickinson, BD Biosciences, San Jose, CA, USA) using CellQuest™ software (Version 6). All experiments were undertaken independently in triplicate. All raw flow cytometry data plots are provided in Supplementary Figures S13–S19.
A general note: In flow cytometry, cells or beads pass a laser one at a time.

The next data set has as its system DENV 2. The data set is described as follows: Percentage of DENV 2 infection of HEK293T/17 cells by flow cytometry. The data set is classed as cell-based, dengue virus. The conditions noted are these: HEK293T/17, MOI 5, 10 µM, 24 h; exception to the significant reduction. The procedure:
The effects of the compounds on DENV-2 infection were evaluated using HEK293T/17 as host cells at MOI of 5. The cells were infected with DENV 2 for 2 h and then the cells were incubated with the compounds at non-cytotoxic (or morphology altering) concentrations of 10 and 25 μM of ZAD-1 and ZAD-3, or 25 and 50 μM of ZAD-2, or 50 and 75 μM of andrographolide or 0.1% DMSO vehicle control. After 24 h of treatment, cells were harvested for determination of the percentage of infection by flow cytometry, while the culture supernatants were collected to determine the viral production.
HEK293T/17 or A549 cells were cultured in six-well plates under standard conditions until the cells reached 80% confluence. HEK293T/17 cells were infected with DENV 2, while A549 cells were infected with ZIKV Thai strain at MOI 5 for 2 h at 37 °C and 5% CO2 in culture medium without FBS. Mock infection was undertaken in parallel. […]
Mock- or viral-infected cells (with or without compound treatment) were harvested at an appropriate time point then incubated with 10% normal goat serum (NGS; Gibco Invitrogen) in PBS-immunofluorescence assay (IFA) buffer on ice for 30 min. […] The fluorescence signal was analyzed by flow cytometry on a BD FACalibur cytometer (Becton Dickinson, BD Biosciences, San Jose, CA, USA) using CellQuest™ software (Version 6). […]

Data set [2] in a line: MTT cytotoxicity assay in Vero cells. The data set is classed as cell-based. The conditions noted are these: African green monkey, Vero cells (monkey kidney), 24 h post-treatment. The procedure: as §1, §2
Figu re S3. Cytotoxicity of ZAD -1 (A), ZA D-2 (B), ZA D-3 (C), and andro grapholide (D) to Ve r o (monkey kidney) cells. Ve r o cells were incubated with various concentrations of each compound for 24 hrs followed by MTT cell viability assay. The experiment was undertaken independently in 4 replicates. DMSO at the same concentrations was used as a control. 10% ethanol, PBS, and milli- Q water were used as a positive control of cell death. The bars show mean ± SD. […]

Data set [3] is described as follows: MTT cytotoxicity assay in A549 cells. The data set is classed as cell-based. The conditions noted are these: human, A549 cells (human lung carcinoma), 24 h post-treatment. The procedure:
as §1, §2
Figu re S4. Cytotoxicity of ZAD -1 (A), ZA D-2 (B), ZA D-3 (C), and andro grapholide (D) to A549 (human lung carcinoma) cells. A549 cells were incubated with various concentrations of each compound for 24 hrs followed by MTT cell viability assay. The experiment was undertaken independently in 4 replicates.
(§3) DMSO at the same concentrations was used as a control. 10% ethanol, PBS, and milli- Q water were used as a positive control of cell death. The bars show mean ± SD. […]

The nature of data set [4]: MTT cytotoxicity assay in BHK-21 cells. The data set is classed as cell-based. The conditions noted are these: hamster, BHK-21 cells (baby hamster kidney), 24 h post-treatment. The procedure: as §1, §2
Figu re S2. Cytotoxicity of ZAD -1 (A), ZA D-2 (B), ZA D-3 (C), and andro grapholide (D) to BHK- 21 (baby hamster kidney) cells. BHK- 21 cells were incubated with various concentrations of each compound for 24 hrs followed by MTT cell viability assay. The experiment was undertaken independently in 4 replicates.
as §3

What is called CC50 is the concentration at which the toxic effect on the cells reaches its halfway point. As to `C=C1CC[C@@H]2[C@](C)(COC(C)=O)[C@H](O)CC[C@@]2(C)[C@@H]1C/C=C1/C(=O)OC[C@H]1Oc1ccc([N+](=O)[O-])cc1OC` [ZAD-3], the CC50 at 24 h in data set [1] worked out at 201 ± 25 µM; in data set [2], 186 ± 25 µM; in data set [3], 190 ± 22 µM; in data set [4] it was 175 ± 7 µM. Also, the “number of ZIKV-infected cells (percentage of infection)” value in the data set with ZIKV was “no significant effects”. Moreover, the “percentage of DENV 2 infection” value with DENV 2 was “exception”.

`C=C1CC[C@@H]2[C@](C)(CO)[C@H](O)CC[C@@]2(C)[C@@H]1C/C=C1/C(=O)OC[C@@H]1Oc1ccc([N+](=O)[O-])cc1OC` [ZAD-2]: the CC50 at 24 h came out at 197 ± 7 µM in data set [1], 179 ± 13 µM in data set [2], 194 ± 17 µM in data set [3] and 218 ± 16 µM in data set [4]. The “number of ZIKV-infected cells (percentage of infection)” value in the data set with ZIKV was “no significant effects”.
